Experimental data from patent publication US20250009844A1, “MATURATION OF MUCOSAL DEFENSE AND GUT/LUNG FUNCTION IN THE PRETERM INFANT” (Novozymes A/S, priority 2017, published 2025).
Entries after “also recorded” stand apart in the source; their conditions may differ. No end group written: not given here.

What was measured:
SCID mice = experiment: Therapeutic, murine, 14 weeks, CD4+CD25+ T cell transfer induced colitis model (Example 4); type: in vivo
From the text: Treatment regime: 70 female BALB/c mice housed in groups of five per cage were allocated to 7 different treatment groups. Colitis was induced in SCID mice by transplantation of CD4+CD25 Tcells from BALB/c mice. Lymphocytes isolated from spleen and lymph nodes from BALB/c mice were subjected to negative selection of CD4+Tcells. Afterwards, CD4+CD25+cells were positively isolated by binding to the beads from the CD4+Tcell suspensions and the CD4+CD25—were collected from the supernatant. The animals were treated with hBD-2, 0.1 mg/kg s.c. once daily 86consecutive days from day 7 (OD); 1 mg/kg s.c. OD or 3 mg/kg s.c. OD;with mouse anti TNFa 100 μg/mouse s.c. twice weekly (enbrel); with dexamethasone 0.3 mg/kg intraperitoneally OD (dex); with PBS s.c. as vehicle from day 7 and 86 consecutive days (vehicle) or sham treated (sham).
Treatment groups: • 1. 0.1 mg/kg hBD-2, once daily subcutaneously (n=11) • 2. 1 mg/kg hBD-2, once daily subcutaneously (n=11) • 3. 3 mg/kg hBD-2, once daily subcutaneously (n=11) • 4. PBS (hBD-2 vehicle), once daily subcutaneously (n=11) • 5. 0.3 mg/kg Dexamethasone, once daily intraperitoneally (n=11) • 6. 100 μg/mouse soluble human 75-kilodalton TNF receptor linked to Fc portion of IgG1 (Enbrel), twice a week subcutaneously (n=11) • 7. Sham treated group (n=6)
Clinical assessment was based on body weight loss, stool consistency and presence of blood per rectum. The animals were sacrificed on day 95 and colon removed for assessment of weight and myeloperoxidase activity.

PBMC cells = experiment: PBMC cell viability, Alamar Blue, 24 hours (Example 8); type: cell-based, human; conditions: 1, 10 and 40 μg/ml, 0.6 and 20.0 pg/ml LPS
Procedure: FIG. 39. Cell viability of PBMC cells following exposure for 24 hours to Alamar Blue and HD5, hBD-1, hBD-2, hBD-3 and hBD-4 at concentrations of 1, 10 and 40 μg/ml.
PBMC cell viability following exposure for 24 hours to Alamar Blue and HD5,hBD-1, hBD-2, hBD-3 and hBD-4 at concentrations of 1, 10 and 40 μg/ml at 0.6 and 20.0 pg/ml LPS respectively (FIG. 39).

[1] = system: gut epithelial cell lines; conditions: cited from earlier work
neonatal rat model = conditions: cited from earlier work
[2] = system: microbiota of the intestine; experiment: Therapeutic high fat diet model in diet-induced obese mice, 16S microbial analyses (Example 2); type: in vivo
From the text: (§1) The overall design of the study is shown in FIG. 1, lower panel, “Therapeutic study”. Mice and diets. The experiment elucidates the effect of hBD-2 and HD5 on the microbiota in diet-induced obese mice. A run-in period of 13 weeks where mice were fed a very HFD (60% energy from fat) preceded the intervention. Only mice meeting the criteria of a minimum of 12 gram weight gain (approximately 50% of initial bodyweight) during the run-in period were included in the final analyses. […] They were exposed to all experimental tests, but excluded from the analyses.
(§2) Treatment regimen. Before the intervention all mice were MR scanned. Cages of mice were allocated to experimental groups based on their fat mass. All subsequent measures were paired with data from the same mouse before the intervention. A LFD (low fat diet) reference group was running in parallel. As controls for the intervention 2 additional groups were included: a) very HFD and b) LFD. Experimental mice stayed on the very HFD during the intervention. The mice were on the experimental diet for 10 weeks. They were co-housed throughout the experiment, 4 mice per cage, 3 cages per group. All tests ran over 3 days, 1 cage per group per day.
(§3) Microbial analyses were carried out to study the microbiota of the intestine. Longitudinal 16S characterization was conducted on 4 paired samples from 60 mice, 240 samples in total. Each mouse was sampled prior to diet change, 1 week post diet change, 4 weeks post diet change and at termination, thus ensuring a thorough characterization of the faecal microbiota as a result of defensin treatment.

BALB/c mice = experiment: Murine model of acute graft versus host disease, oral HD5 (Example 13); type: in vivo
Procedure: Treatment regime: 22 female BALB/c mice were irradiated with 4.5 Gy (2×498 sec) at intervals of at least 4 hours on day 0. Bone marrow was harvested: hind limbs harvested from 2 female WT C57BL/6 mice aseptically. Skeletal muscle was removed and epiphysis cut away. Lumen of bone flushed with PBS and cells pelleted and taken up. Harvest of T-cells: spleens from 2 female WT C57BL/6 mice were meshed through a […] cell strainer into a PBS filled dish. Cells were taken up in PBS and transferred into a 50 mL falcon tube and spun down. Cells were taken up in 1 mL PBS and 20 μL of CD4 microbead +20 μL CD8 microbeads per spleen added for incubation for 20 min at 4 degrees C. Cells were washed with PBS and applied to MACS separation in order to positively select CD4+ and CD8+ cells. Positively selected T-cells were counted and taken up. Transplantation: directly after the second irradiation, all WT BALB/c recipient mice were injected with 5×1.000.000 BM cells (50 μL) i.v. into the retroorbital venous plexus under isoflurane anesthesia. 22 BALB/c mice were treated with 1.2 mg of HD5/kg BW/day; 1.2 mg of hBD-2/kg BW/day or 100 μL of PBS per day vial oral gavage from day 0-10.
Survival was monitored for 60 days.

[3] = system: bacteria localization at the surface of the intestinal mucosa; experiment: Localization of bacteria by FISH with mucin immunostaining, lysis zone (Example 14); type: in vivo; conditions: orally administered; compared with mice on a low fat or western diet
Procedure: Immunostaining of mucins and localization of bacteria by FISH Mucus immunostaining was paired with fluorescent in situ hybridization (FISH), as previously described in order to analyze bacteria localization at the surface of the intestinal mucosa. Briefly, colonic tissues (proximal colon, 2nd cm from the cecum) without fecal material were placed in methanol-Carnoy's fixative solution (60% methanol, 30% chloroform, 10% glacial acetic acid) for a minimum of 3 hours at room temperature. Tissues were then washed in methanol 2×30 min, ethanol 2×15 min, ethanol/xylene (1:1), 15 min and xylene 2×15 min, followed by embedding in Paraffin with a vertical orientation. Five μm sections were performed and dewax by preheating at 60° C. for 10 min, followed by xylene 60° C. for 10 min, xylene for 10 min and 99.5% ethanol for 10 minutes. Hybridization step was performed at 50° C. overnight with EUB338 probe (5′-GCTGCCTCCCGTAGGAGT-3′, with a 5′ labeling using Alexa 647) diluted to a final concentration of 10 μg/mL in hybridization buffer (20 mM Tris-HCl, pH 7.4, 0.9 M NaCl, 0.1% SDS, 20% formamide). After washing 10 min in wash buffer (20 mM Tris-HCl, pH 7.4, 0.9 M NaCl) and 3×10 min in PBS, PAP pen (Sigma-Aldrich) was used to mark around the section and block solution (5% fetal bovine serum in PBS) was added for 30 min at 4° C. […]

[4] = Therapeutic high fat diet model in diet-induced obese mice, weight and fat percentage (Example 2); type: in vivo
From the text: as §1, §2

[5] = system: microbiota of the intestine; experiment: Prophylactic high fat diet murine model, 16S microbial analyses (Example 1); type: in vivo, mice
From the text: The overall experimental design is shown in FIG. 1, top panel “Prophylactic study”. Mice: Mice were housed in trios, 4 cages per group. Feed intake was registered daily just before lights were turned off at 6 pm. Individual mice were subjected to experimental procedures in altered order both group and cage wise. Mice were kept at room temperature under a 12-hour light/dark cycle at SPF standard conditions. Diets: For dosing, the average weight was estimated to be 25 grams per mouse. Mice eat approximately 3 grams of feed per mouse per day.
Treatment regime: Mice were fed either a high fat diet (HFD) or a low fat (LF) control diet. The HFD contained 4 subgroups; a) hBD-2, b) HD5, c) hBD-2/HD5 and d) standard HFD without supplementation of defensins. Defensin concentration was 1,2 mg hBD-2 per kg mouse per day. HD5 was given in equimolar concentration to hBD-2.
as §3

[6] = same three dosing regimens, sacrifice day 95

## Enbrel [reference compound]
SCID mice; hBD-2 1 mg/kg s.c. OD, Dexamethasone 0.3 mg/kg i.p. OD, Enbrel 100 μg/mouse s.c. twice weekly, from day 7
  Clinical score (body weight loss, stool consistency, blood per rectum): statistically significant and similar effect on clinical score
SCID mice; [6]
  Colon weight: statistically significant and similar effect on colon weight
  Myeloperoxidase activity in intestinal tissue: statistically significant and similar effect

## human beta defensin 1 (DHYNCVSSGGQCLYSACPIFTKIQGTCYRGKAKCCK; ends and bridges not checked; cysteine pairing not given here; listed as Homo sapiens) [hBD-1]
PBMC cells
  Toxicity (PBMC cell viability): not toxic irrespectively of concentration; also recorded: not to be toxic

## human beta defensin 3 (GIINTLQKYYCRVRGGRCAVLSCLPKEEQIGKCSTRGRKCCRRK; ends and bridges not checked; cysteine pairing not given here; listed as Homo sapiens) [hBD-3]
[1]
  Toxicity: not to be toxic
Neonatal rat model
  Incidence of NEC: decrease the incidence of NEC
PBMC cells
  Toxicity (PBMC cell viability): profoundly increasing toxicity; also recorded: toxic

## human beta defensin 4 (ELDRICGYGTARCRKKCRSQEYRIGRCPNTYACCLRK; ends and bridges not checked; cysteine pairing not given here; listed as Homo sapiens) [hBD-4]
PBMC cells
  Toxicity (PBMC cell viability): moderately increasing toxicity; also recorded: moderately toxic

## human intestinal alpha defensin 5 (ATCYCRTGRCATRESLSGVCEISGRLYRLCCR; listed as Homo sapiens) [HD5]
[2]; colon, therapeutic intervention, HD5 p<0.02
  Abundance of Alloprevotella: increased the abundance of Alloprevotella statistically significantly
[2]; small intestine, hBD-2 p<0.0001
  Relative abundance of Bifidobacteriaceae: trend towards HD5 increasing the abundance of Bifidobacteriaceae
BALB/c mice; 1.2 mg/kg BW/day oral gavage day 0-10, HD5 group of 8, PBS six out of eight died
  Animals that had died by day 60: 2
BALB/c mice; 22 mice, oral treatment for 10 days
  Mortality: significant reduction of mortality
[3]
  Distance from the intestinal lining to bacterial population (lysis zone): profound effect on the distance
[4]; 4 weeks after dietary change, HFD plus HD5 vs HFD control, p=0.009
  Fat percentage: significantly lower fat percentage
[4]; HFD plus HD5 group after dietary intervention
  Fat percentage, course: tendency of decreasing fat percentage
[4]; after dietary intervention, HFD plus HD5 vs HFD control, p<0.05
  Weight gain: gained significantly less weight than the HFD control
[5]; prophylactic oral defensin in HFD, 1,2 mg hBD-2 per kg per day, HD5 equimolar, mix 50%+50%
  Microbial presence and abundance (unifrac, genus analysis): affected primarily the microbial abundance
[5]; small intestine, prophylaxis, p<0.02
  Abundance of Allobaculum: statistically significant increase of abundance of Allobaculum
PBMC cells
  Toxicity (PBMC cell viability): not toxic irrespectively of concentration; also recorded: not to be toxic
